Measured values as given in the CheMixHub ionic liquid set.
Where “and” joins values, the source holds several entries; their conditions need not be identical. Equal entries are not always repeated.

Test: xn = mol fraction of the nth substance listed
Conditions: 100 kPa

OC[C@H]1O[C@@H](O[C@H]2[C@H](O)[C@@H](O)[C@@H](O)O[C@@H]2CO)[C@H](O)[C@@H](O)[C@H]1O + CCCC[N+](C)(CCCC)CCCC.[Cl-] + O
viscosity
Conditions	293.15 K	298.15 K	303.15 K	308.15 K	313.15 K
x1 = 0.0003513, x2 = 0	1.018 mPa·s	0.904 mPa·s	0.804 mPa·s	0.725 mPa·s	0.658 mPa·s
x1 = 0.0003543, x2 = 0.000702	1.043 mPa·s	0.929 mPa·s	0.828 mPa·s	0.745 mPa·s	0.679 mPa·s
x1 = 0.0003546, x2 = 0.0003601	1.027 mPa·s	0.917 mPa·s	0.819 mPa·s	0.735 mPa·s	0.667 mPa·s
x1 = 0.0003558, x2 = 0.001062	1.057 mPa·s	0.948 mPa·s	0.843 mPa·s	0.757 mPa·s	0.696 mPa·s
x1 = 0.0003573, x2 = 0.001421	1.069 mPa·s	0.961 mPa·s	0.856 mPa·s	0.77 mPa·s	0.706 mPa·s
x1 = 0.0007059, x2 = 0	1.038 mPa·s	0.919 mPa·s	0.812 mPa·s	0.731 mPa·s	0.662 mPa·s
x1 = 0.000709, x2 = 0.00036	1.049 mPa·s	0.937 mPa·s	0.834 mPa·s	0.747 mPa·s	0.673 mPa·s
x1 = 0.0007119, x2 = 0.0007018	1.067 mPa·s	0.948 mPa·s	0.843 mPa·s	0.758 mPa·s	0.689 mPa·s
x1 = 0.0007149, x2 = 0.001061	1.081 mPa·s	0.969 mPa·s	0.86 mPa·s	0.771 mPa·s	0.708 mPa·s
x1 = 0.000718, x2 = 0.001421	1.094 mPa·s	0.984 mPa·s	0.876 mPa·s	0.785 mPa·s	0.72 mPa·s
x1 = 0.001058, x2 = 0	1.059 mPa·s	0.936 mPa·s	0.827 mPa·s	0.741 mPa·s	0.671 mPa·s
x1 = 0.001063, x2 = 0.0003599	1.07 mPa·s	0.952 mPa·s	0.848 mPa·s	0.758 mPa·s	0.681 mPa·s
x1 = 0.001067, x2 = 0.0007015	1.088 mPa·s	0.966 mPa·s	0.857 mPa·s	0.77 mPa·s	0.698 mPa·s
x1 = 0.001072, x2 = 0.001061	1.106 mPa·s	0.989 mPa·s	0.877 mPa·s	0.785 mPa·s	0.72 mPa·s
x1 = 0.001077, x2 = 0.00142	1.118 mPa·s	1.003 mPa·s	0.891 mPa·s	0.799 mPa·s	0.733 mPa·s
x1 = 0.001413, x2 = 0	1.079 mPa·s	0.955 mPa·s	0.843 mPa·s	0.752 mPa·s	0.68 mPa·s
x1 = 0.001419, x2 = 0.0003598	1.093 mPa·s	0.971 mPa·s	0.86 mPa·s	0.77 mPa·s	0.694 mPa·s
x1 = 0.001425, x2 = 0.0007013	1.11 mPa·s	0.986 mPa·s	0.872 mPa·s	0.784 mPa·s	0.709 mPa·s
x1 = 0.001431, x2 = 0.001061	1.127 mPa·s	1.006 mPa·s	0.893 mPa·s	0.8 mPa·s	0.734 mPa·s
x1 = 0.001437, x2 = 0.00142	–	1.14 mPa·s	1.02 mPa·s	0.909 mPa·s	0.747 mPa·s and 0.816 mPa·s
x1 = 0.001765, x2 = 0	1.097 mPa·s	0.971 mPa·s	0.858 mPa·s	0.764 mPa·s	0.689 mPa·s
x1 = 0.001774, x2 = 0.0003596	1.118 mPa·s	0.987 mPa·s	0.879 mPa·s	0.783 mPa·s	0.705 mPa·s
x1 = 0.00178, x2 = 0.000701	1.133 mPa·s	1.003 mPa·s	0.889 mPa·s	0.797 mPa·s	0.719 mPa·s
x1 = 0.001787, x2 = 0.00106	1.15 mPa·s	1.024 mPa·s	0.909 mPa·s	0.814 mPa·s	0.745 mPa·s
x1 = 0.001795, x2 = 0.001419	–	1.164 mPa·s	1.038 mPa·s	0.923 mPa·s	0.76 mPa·s and 0.829 mPa·s
